Experimental data published in paper PMC11788587, “Validating Low‐Dose Iohexol as a Marker for Glomerular Filtration Rate by In Vitro and In Vivo Studies” (Clinical and Translational Science, 2025).
Where two headings read alike, the source gives them in different places.

Legend:
hOCT2 [1] = biological target: T1, hOCT2 (Homo sapiens, UniProt O15244); experiment: Inhibition of hOCT2-mediated metformin uptake, stably transfected 293 cells; type: cell-based; conditions: substrate 5 µM metformin, median (95% CI)
T1 construct: expressed in transfected cells; host or cells: HEK-293 (293) cells, pEBTetD plasmid, doxycycline-induced
T1 sequence (O15244 1-555): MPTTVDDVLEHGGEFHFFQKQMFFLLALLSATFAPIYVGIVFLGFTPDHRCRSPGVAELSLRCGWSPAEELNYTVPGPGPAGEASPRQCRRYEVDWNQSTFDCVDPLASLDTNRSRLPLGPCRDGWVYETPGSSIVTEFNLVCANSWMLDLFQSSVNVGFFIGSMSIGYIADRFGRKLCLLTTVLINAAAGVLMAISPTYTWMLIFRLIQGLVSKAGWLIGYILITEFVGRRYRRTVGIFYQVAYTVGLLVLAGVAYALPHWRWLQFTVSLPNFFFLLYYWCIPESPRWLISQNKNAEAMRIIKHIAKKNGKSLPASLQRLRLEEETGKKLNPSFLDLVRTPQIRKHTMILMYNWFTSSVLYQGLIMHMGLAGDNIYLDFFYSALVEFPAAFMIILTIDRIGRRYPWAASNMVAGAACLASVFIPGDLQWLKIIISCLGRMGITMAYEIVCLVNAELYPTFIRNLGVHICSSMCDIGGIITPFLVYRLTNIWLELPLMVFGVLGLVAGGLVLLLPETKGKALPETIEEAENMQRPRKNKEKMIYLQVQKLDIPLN
From the text: (§1) We characterized the inhibitory potential of iohexol on major drug transporters recommended by regulatory agencies, which were previously assessed in a clinical transporter phenotyping cocktail study. These transporters include hOAT1, hOAT3, hOCT1, hOCT2, hMATE1, hMATE2K, human organic anion transporter polypeptides (hOATP)1B1, hOATP1B3, and human multidrug resistance protein (hMDR)1. Additionally, we investigated whether iohexol is a substrate for any of the renal transporters among these, including hOAT1/3, hOCT1/2, and hMATE1/2K. Cell‐based uptake assays were used to assess the activities of hOAT1/3, hOCT1/2, hMATE1/2K, and hOATP1B1/1B3. Inside‐out membrane vesicle uptake assays were used to evaluate the activity of hMDR1.
To determine the maximal inhibitory potential of iohexol, intracellular accumulation of a standard substrate was measured with and without the clinically relevant highest concentrations of iohexol. Control inhibitors were tested in each experiment.
In all subsequent in vitro studies, control experiments were conducted to validate the results. These included positive controls for substrates and inhibitors, as well as cells either without transporter expression or transfected with an empty vector, and control vesicles. Each condition, including cells or vesicles with the transporter and their respective controls, was analyzed in at least three replicates. For detailed information on materials, methods, and data analysis techniques used, refer to the Supporting Information. […]
(§2) R version 4.2.1 (R Foundation for Statistical Computing, Vienna, Austria) was used for statistical evaluations and data visualization. The data analysis approach for the in vitro study was detailed by Hsin CH et al..^1 In brief, for transport assays, the initial uptake rate was calculated by normalizing the substrate concentration to both the protein concentration and the incubation time for each dish or well. The transporter-mediated uptake rate (net uptake) was determined by performing an element-wise subtraction of uptake rates from different conditions. […]

hOCT2 [2] = biological target: T1, hOCT2; experiment: Substrate assessment: iohexol uptake in 293 cells expressing hOCT2 vs control; type: in vitro ADME; conditions: 10 μM iohexol, median (95% CI)
From the text: as §1
For substrate assessments, iohexol was incubated with stably transfected HEK‐293 cells expressing one of the following transporters: hOAT1, hOAT3, hOCT1, hOCT2, hMATE1, or hMATE2K, as well as with control cells lacking transporter expression. Stably transfected cell lines containing pEBTetD plasmids with wild‐type human transporter cDNAs were generated as previously described. Transporter expression was induced by adding 1 μg/mL doxycycline to the growth medium for at least 20 h. Iohexol would be considered a substrate for these transporters if: (1) the ratio of iohexol uptake in cells expressing the transporter to that in control cells was ≥ 2, and (2) a known inhibitor of the transporter reduced iohexol uptake to ≤ 50% at concentrations ≥ 10 times its inhibition constant or half‐maximal inhibitory concentration.
Uptake assays were performed using stably transfected 293 cells, with or without the expression of one of the following transporters: hOAT1, hOAT3, hOCT1, hOCT2, hMATE1, or hMATE2K, as previously described.^1
For the substrate assessment, cells were incubated with 10 µM iohexol for 10 minutes and 30 minutes for each transporter. Inhibition assays were performed using specific standard substrates for each transporter: 10 µM para-aminohippuric acid (PAH) for hOAT1, 3 µM estrone-3-sulfate (E3S) for hOAT3, 50 µM metformin for hOCT1, 5 µM metformin for hOCT2, and 3 µM 1-methyl-4-phenylpyridinium (MPP+) for hMATE1 and hMATE2K. […]
as §2

[3] = Clinical trial in healthy volunteers, noncompartmental analysis of plasma and urine; type: in vivo, human; conditions: for CL (plasma clearance, dose/AUC) / Ae0‐t (cumulative urinary excretion of unchanged iohexol) / Rmax (maximum observed excretion rate) / Vd / half-life / dose excreted / AUC: fasting, geomean (geoSD); for CL (plasma clearance, dose/AUC) / Vd / half-life / AUC: n=12, plasma; for Vd / half-life / dose excreted / AUC: human, iv; for Vd: read-out: Vz; for half-life: read-out: t1/2,λz (converted); for dose excreted: read-out: Recovery (percentage of dose recovered in urine)
P‐glycoprotein = test system: P‐glycoprotein; set-up: method as in ref 16 Supawat et al.; conditions: human cancer cell lines; not statistically significant; ref 16 Supawat et al.; cited from earlier work
[4] = Reference: 3235 mg i.v. bolus, urine, n=10
[5] = Test: 259 mg i.v. bolus, urine, n=10

Inhibitory effect (% reduction of specific activity) (hOCT2 [1]; 20 mM iohexol): no notable inhibitory effects
inhibition at 1000 µM (hOCT2 [1]; HEK293, 1 mM iohexol, read-out: Inhibitory effect (% reduction of specific activity)): -13%
inhibition at 20000 µM (hOCT2 [1]; HEK293, 20 mM iohexol, read-out: Inhibitory effect (% reduction of specific activity)): -23%
Differences in intracellular accumulation (expression on minus off) (hOCT2 [2]; 10 minutes): 1.3 (0.007 to 2.6) pmol/mg protein
Uptake ratio (transporter-expressing vs non-expressing cells) (hOCT2 [2]; 10 minutes): 1.1 (1 to 1.2)
Differences in intracellular accumulation (expression on minus off) (hOCT2 [2]; 30 minutes): 1.5 (-1.4 to 2.9) pmol/mg protein
Uptake ratio (transporter-expressing vs non-expressing cells) (hOCT2 [2]; 30 minutes): 1.1 (0.9 to 1.3)
T/R ratio (90% CIs) of urinary recovery ([3]; 259 mg test vs 3235 mg reference, urine, n=10): 1.06 (0.960–1.17)
CL (plasma clearance, dose/AUC) ([3]; Reference: 3235 mg i.v. bolus): 5.43 (1.19) L/h
Ae0‐t (cumulative urinary excretion of unchanged iohexol) [3, 4]: 3364 (1.14) mg
Rmax (maximum observed excretion rate) [3, 4]: 951 (1.12) mg/h
CL (plasma clearance, dose/AUC) ([3]; Test: 259 mg i.v. bolus): 5.46 (1.15) L/h
Ae0‐t (cumulative urinary excretion of unchanged iohexol) [3, 5]: 273 (1.09) mg
Rmax (maximum observed excretion rate) [3, 5]: 73.7 (1.27) mg/h
Vd ([3]; Reference: 3235 mg i.v. bolus): 32.4 L
half-life ([3]; Reference: 3235 mg i.v. bolus): 4.14 h
dose excreted [3, 4]: 103%
Vd ([3]; Test: 259 mg i.v. bolus): 26.1 L
half-life ([3]; Test: 259 mg i.v. bolus): 3.32 h
dose excreted [3, 5]: 106%
AUC ([3]; 259 mg, Test: 259 mg i.v. bolus, read-out: AUC0‐t): 46.5 µg·h/mL
AUC ([3]; 259 mg, Test: 259 mg i.v. bolus, read-out: AUC0‐∞): 46.7 µg·h/mL
AUC ([3]; 3235 mg, Reference: 3235 mg i.v. bolus, read-out: AUC0‐t): 598 µg·h/mL
AUC ([3]; 3235 mg, Reference: 3235 mg i.v. bolus, read-out: AUC0‐∞): 600 µg·h/mL
CVintra of CL ([3]; intraindividual coefficient of variation, test vs reference): 5.29%
SMILES: CC(=O)N(CC(O)CO)c1c(I)c(C(=O)NCC(O)CO)c(I)c(C(=O)NCC(O)CO)c1I (centres unmarked) [iohexol]
Inhibitory effect on P-glycoprotein (P‐glycoprotein): mild inhibitory effect
